ChEMBL document CHEMBL1201862, “PubChem BioAssay data set” (2004)
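Test compounds were applied to cells in 96-well plates for 48 hours at 5 doses. At the GI50, growth is halved.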 Active and inactive are the calls of the source. Rule as the data show it: active = GI50 up to about 1.1 µM and inactive = higher.

What was measured:
Experiment in all cases: NCI anticancer screen, dose series, 48 h
LXFL 529 = system: LXFL 529
RXF 631 = system: RXF 631
HOP-18 = system: HOP-18
Hs-578T = system: Hs-578T
MCF7 = system: MCF7
BT-549 = system: BT-549
PC-3 = system: PC-3
MDA-MB-435 = system: MDA-MB-435
786-0 = system: 786-0

Measured: GI50

O=C(CC1Sc2ccccc2NC1=O)Nc1ccccc1[N+](=O)[O-] (stereo not drawn)
inactive: LXFL 529 > 100 µM | RXF 631 > 100 µM | HOP-18 > 100 µM

O=C(O)Cc1ccc(N2N=C(c3ccccc3)CC2=O)cc1
inactive: Hs-578T > 100 µM | MCF7 > 100 µM | BT-549 > 100 µM | PC-3 > 100 µM

O=C1C(Cl)N(c2ccc([N+](=O)[O-])cc2)C1c1c[nH]c2ccccc12 (stereo not drawn)
inactive: LXFL 529 36.2 µM

CCCCSCCC(N)P(=O)(O)O (stereo not drawn)
inactive: Hs-578T > 100 µM | MCF7 > 100 µM | MDA-MB-435 > 100 µM | PC-3 > 100 µM

Cc1nc2c(n1C)C(=O)c1nc(CBr)[nH]c(=O)c1C2=O
inactive: LXFL 529 > 100 µM | HOP-18 > 100 µM

CCc1n[nH]c(=O)n1CC
inactive: Hs-578T > 100 µM | MCF7 > 100 µM | BT-549 > 100 µM | 786-0 > 100 µM | MDA-MB-435 > 100 µM

Cc1ccc(N2Cc3c(ccc4ccccc34)OP2(=S)N2CCCC2)cc1 (stereo not drawn)
inactive: MCF7 > 100 µM | HOP-18 > 100 µM

COc1cccc(CC2Cc3ccccc3CC(=O)N2)c1 (stereo not drawn)
inactive: Hs-578T 21.4 µM | MCF7 30.4 µM | BT-549 28 µM | MDA-MB-435 32.7 µM | PC-3 31 µM

O=NN(CC1(O)OCC(O)C(O)C1O)C(Cc1c[nH]c2ccccc12)C(=O)O (stereo not drawn)
inactive: 786-0 > 100 µM | RXF 631 > 100 µM

c1ccc2c(NCCCCCCCCNc3cccc4ccccc34)cccc2c1
inactive: LXFL 529 18.6 µM | 786-0 23.4 µM | RXF 631 18.9 µM | HOP-18 20.1 µM

c1ccc(C2=NNC3c4ccccc4-c4ccccc4N3C2)cc1 (stereo not drawn)
inactive: Hs-578T 34.8 µM | MCF7 14.7 µM | BT-549 33.3 µM | 786-0 50 µM | MDA-MB-435 27.8 µM | PC-3 23.7 µM

COc1cccc(NC(=O)CC(=O)NN2C(=O)/C(=C/c3ccc(N(CCC#N)CCC#N)cc3)N=C2c2cc([N+](=O)[O-])ccc2Cl)c1
inactive: LXFL 529 40.7 µM | RXF 631 > 100 µM

CC(=O)Oc1ccccc1[C@H]1CC(=O)C[C@H](c2ccccc2OC(C)=O)C12C(=O)c1ccccc1C2=O
inactive: Hs-578T 27.7 µM | BT-549 24.9 µM | MDA-MB-435 14.7 µM | PC-3 17.5 µM

Cc1[nH]c(=O)[nH]c(=O)c1/C=C/C(=O)NC(CO)CC(C)C (stereo not drawn)
inactive: MCF7 228 µM | HOP-18 254 µM

O=C(OCCO)C1CC2CC1C1(C2)OCCO1 (stereo not drawn)
inactive: LXFL 529 > 100 µM | 786-0 > 100 µM | HOP-18 > 100 µM

COc1ccc(CCn2nccc2C)cc1
inactive: Hs-578T > 100 µM | MCF7 > 100 µM | BT-549 > 100 µM | MDA-MB-435 > 100 µM | PC-3 > 100 µM

COc1ccccc1NC(=O)C(=O)C(C(=O)c1ccccc1F)C1OC(=O)c2ccccc21 (stereo not drawn)
inactive: LXFL 529 24.9 µM | RXF 631 18.7 µM

COc1cccc(-c2c(C#N)c(N)nc3c2CCS(=O)(=O)c2ccc(C)cc2-3)c1
inactive: Hs-578T > 100 µM | BT-549 > 100 µM | 786-0 61.7 µM | MDA-MB-435 > 100 µM | PC-3 89.1 µM

COc1cccc(CCn2c(N)c(-c3cc(Cl)cc(Cl)c3)c3ccc([N+](=O)[O-])cc3c2=O)c1
inactive: Hs-578T 3.19 µM | MCF7 4.62 µM | BT-549 3.53 µM | 786-0 4.91 µM | MDA-MB-435 3.57 µM | PC-3 3.1 µM

CC1(Cl)CC2C(CC1Sc1nnnn1-c1ccccc1)C2(C)C (stereo not drawn)
inactive: LXFL 529 60.3 µM

Cc1ccc(SSCCCCCS(=O)O)cc1
inactive: LXFL 529 14.6 µM | RXF 631 25.9 µM

CSCC[C@@H](NC(=O)[C@H](CC(C)C)NC(=O)C(Cc1cnc[nH]1)NC(=O)CNC(=O)[C@@H](NC(=O)[C@H](C)NC(=O)[C@H](Cc1cn(C=O)c2ccccc12)NC(=O)[C@H](CCC(N)=O)NC(=O)[C@@H](N)CC(N)=O)C(C)C)C(N)=O (stereo partly drawn)
inactive: MCF7 > 100 µM | HOP-18 > 100 µM

COC(=O)C1=C(C)C(=O)[C@H]2C(C(=O)OC)CCCC[C@@H]12 (stereo partly drawn)
inactive: LXFL 529 > 100 µM | 786-0 > 100 µM | HOP-18 > 100 µM

NCCCCCC(CCN)SCC1OC(n2cnc3c(N)ncnc32)C(O)C1O (stereo not drawn)
inactive: MCF7 > 1500 µM | HOP-18 6.76 µM

COc1c(O)c(C=O)c2c(O)c(-c3c(C)cc4c(C(C)C)c(OC)c(O)c(C=O)c4c3O)c(C)cc2c1C(C)C [6,6'-METHOXYGOSSYPOL]
inactive: LXFL 529 3.96 µM
